Reference: patent publication EP0908457B1, “3-(1,2-benzisothiazol- and isoxazol-5-Y1)-2,4(1H,3H)-pyrimidinedione or thione and 3-(1,2-benzisothiazol- and isoxazol-5-y1)-4(3H)-pyrimidinone or thione herbicidal agents” (BASF AKTIENGESELLSCHAFT, priority 1997, dated 1999)

Legend:
Format in all cases: in vivo
[1] = tested on: Monochoria vaginalis, Presl.; assay: Preemergence weed control under flooded paddy conditions, MOOVA (Monochoria); conditions: flooded paddy, rated three to four weeks after treatment; on herbicidal effect rating, MOOVA: meaning of each grade not given here
Sagittaria pygmaea, L. = assay: Preemergence weed control under flooded paddy conditions, SAGPY (Arrowhead (Pygmaea)); conditions: flooded paddy, rated three to four weeks after treatment; on herbicidal effect rating, SAGPY: meaning of each grade not given here
Cyperus iria = assay: Preemergence weed control under flooded paddy conditions, CYPIR (Rice Flatsedge); conditions: flooded paddy, rated three to four weeks after treatment; on herbicidal effect rating, CYPIR: meaning of each grade not given here
[2] = tested on: Cyperus serotinus, Rottb.; assay: Preemergence weed control under flooded paddy conditions, CYPSE (Flatsedge); conditions: rated three to four weeks after treatment; on herbicidal effect rating, CYPSE: meaning of each grade not given here
[3] = tested on: Echinochloa oryzoides (Ard.) Fritsch.; assay: Preemergence weed control under flooded paddy conditions, ECHORC (Watergrass (Calif.)); conditions: flooded paddy, rated three to four weeks after treatment; on herbicidal effect rating, ECHORC: meaning of each grade not given here
[4] = Rate 0.0320 kg/ha, preemergence
[5] = Rate 0.0620 kg/ha, preemergence
[6] = Rate 0.1250 kg/ha, preemergence
[7] = Rate 0.2500 kg/ha, preemergence
[8] = 0.0313 kg/ha, preemergence weeds
[9] = 0.0625 kg/ha, preemergence weeds
[10] = 0.1250 kg/ha, preemergence weeds
[11] = 0.2500 kg/ha, preemergence weeds

Structure (SMILES): Cn1c(C(F)(F)F)cc(=O)n(-c2ccc3snc(C(C#N)=CC4CCCC4)c3c2)c1=O [Example 607, 1,2-Benzisothiazole-3-acetonitrile, alpha(cyclopentylmethylene)-5-[3,6-dihydro-3-methyl-2,6-dioxo-4-(trifluoromethyl)-1(2H)-pyrimidinyl]-, (E)- and (Z)-]
- herbicidal effect rating, MOOVA [1, 4]: 6.0
- herbicidal effect rating, MOOVA [1, 5]: 7.0
- herbicidal effect rating, MOOVA [1, 6]: 9.0
- herbicidal effect rating, MOOVA [1, 7]: 9.0
- herbicidal effect rating, SAGPY (Sagittaria pygmaea, L.; [4]): 0.0
- herbicidal effect rating, SAGPY (Sagittaria pygmaea, L.; [5]): 0.0
- herbicidal effect rating, SAGPY (Sagittaria pygmaea, L.; [6]): 0.0
- herbicidal effect rating, SAGPY (Sagittaria pygmaea, L.; [7]): 3.0
- herbicidal effect rating, CYPIR (Cyperus iria; [4]): 0.0
- herbicidal effect rating, CYPIR (Cyperus iria; [5]): 2.0
- herbicidal effect rating, CYPIR (Cyperus iria; [6]): 5.0
- herbicidal effect rating, CYPIR (Cyperus iria; [7]): 5.0
- herbicidal effect rating, CYPSE [2, 5]: 0.0
- herbicidal effect rating, CYPSE [2, 6]: 0.0
- herbicidal effect rating, CYPSE [2, 7]: 0.0
- herbicidal effect rating, ECHORC [3, 4]: 4.0
- herbicidal effect rating, ECHORC [3, 5]: 7.0
- herbicidal effect rating, ECHORC [3, 6]: 9.0
- herbicidal effect rating, ECHORC [3, 7]: 9.0

Structure (SMILES): CC(C)=NOC(=O)COc1ccc(C)cc1-c1nsc2ccc(-n3c(=O)cc(C(F)(F)F)n(C)c3=O)cc12 [Example 194]
- herbicidal effect rating, MOOVA [1, 8]: 9.0
- herbicidal effect rating, MOOVA [1, 9]: 9.0
- herbicidal effect rating, MOOVA [1, 10]: 9.0
- herbicidal effect rating, MOOVA [1, 11]: 9.0
- herbicidal effect rating, SAGPY (Sagittaria pygmaea, L.; [8]): 0.0
- herbicidal effect rating, SAGPY (Sagittaria pygmaea, L.; [9]): 0.0
- herbicidal effect rating, SAGPY (Sagittaria pygmaea, L.; [10]): 0.0
- herbicidal effect rating, SAGPY (Sagittaria pygmaea, L.; [11]): 0.0
- herbicidal effect rating, CYPIR (Cyperus iria; [8]): 0.0
- herbicidal effect rating, CYPIR (Cyperus iria; [9]): 0.0
- herbicidal effect rating, CYPIR (Cyperus iria; [10]): 0.0
- herbicidal effect rating, CYPIR (Cyperus iria; [11]): 0.0
- herbicidal effect rating, CYPSE [2, 8]: 0.0
- herbicidal effect rating, CYPSE [2, 9]: 0.0
- herbicidal effect rating, CYPSE [2, 10]: 0.0
- herbicidal effect rating, CYPSE [2, 11]: 0.0
- herbicidal effect rating, ECHORC [3, 8]: 0.0
- herbicidal effect rating, ECHORC [3, 9]: 2.0
- herbicidal effect rating, ECHORC [3, 10]: 6.0
- herbicidal effect rating, ECHORC [3, 11]: 9.0

Structure (SMILES): Cn1c(C(F)(F)F)cc(=O)n(-c2ccc3snc(COC(=O)C4CC4)c3c2)c1=O [Example 496, 2,4(1H,3H)-Pyrimidinedione, 3-[3-(hydroxymethyl)-1,2-benzisothiazol-5-yl]-1-methyl-6-(trifluoromethyl)-, cyclopropanecarboxylate (ester)]
- MOOVA herbicidal rating ([1]; 0.0320 kg/ha, preemergence): 0.0
- MOOVA herbicidal rating ([1]; 0.0620 kg/ha, preemergence): 6.0
- MOOVA herbicidal rating ([1]; 0.1250 kg/ha, preemergence): 6.0
- MOOVA herbicidal rating ([1]; 0.2500 kg/ha, preemergence): 8.0
- SAGPY herbicidal rating (Sagittaria pygmaea, L.; 0.0320 kg/ha, preemergence): 0.0
- SAGPY herbicidal rating (Sagittaria pygmaea, L.; 0.0620 kg/ha, preemergence): 0.0
- SAGPY herbicidal rating (Sagittaria pygmaea, L.; 0.1250 kg/ha, preemergence): 3.0
- SAGPY herbicidal rating (Sagittaria pygmaea, L.; 0.2500 kg/ha, preemergence): 6.0
- CYPIR herbicidal rating (Cyperus iria; 0.0320 kg/ha, preemergence): 0.0
- CYPIR herbicidal rating (Cyperus iria; 0.0620 kg/ha, preemergence): 7.0
- CYPIR herbicidal rating (Cyperus iria; 0.1250 kg/ha, preemergence): 7.0
- CYPIR herbicidal rating (Cyperus iria; 0.2500 kg/ha, preemergence): 9.0
- CYPSE herbicidal rating ([2]; 0.2500 kg/ha, preemergence): 7.0
- ECHORC herbicidal rating ([3]; 0.0320 kg/ha, preemergence): 4.0
- ECHORC herbicidal rating ([3]; 0.0620 kg/ha, preemergence): 4.0
- ECHORC herbicidal rating ([3]; 0.1250 kg/ha, preemergence): 6.0
- ECHORC herbicidal rating ([3]; 0.2500 kg/ha, preemergence): 7.0

Structure (SMILES): COC(CCOc1ccc(C)cc1-c1nsc2ccc(-n3c(=O)cc(C(F)(F)F)n(C)c3=O)cc12)OC [Example 467, Propionaldehyde, 3-{{2-[5-{3,6-dihydro-3-methyl-2,6-dioxo-4-(trifluoromethyl)-1(2H)-pyrimidinyl]-1,2-benzisothiazol-3-yl}-p-tolyl}oxy}-, 1-(dimethylacetal)]
- MOOVA herbicidal rating ([1]; 0.0320 kg/ha, preemergence): 7.0
- MOOVA herbicidal rating ([1]; 0.0620 kg/ha, preemergence): 9.0
- MOOVA herbicidal rating ([1]; 0.1250 kg/ha, preemergence): 9.0
- MOOVA herbicidal rating ([1]; 0.2500 kg/ha, preemergence): 9.0
- SAGPY herbicidal rating (Sagittaria pygmaea, L.; 0.0320 kg/ha, preemergence): 0.0
- SAGPY herbicidal rating (Sagittaria pygmaea, L.; 0.0620 kg/ha, preemergence): 0.0
- SAGPY herbicidal rating (Sagittaria pygmaea, L.; 0.1250 kg/ha, preemergence): 3.0
- SAGPY herbicidal rating (Sagittaria pygmaea, L.; 0.2500 kg/ha, preemergence): 7.0
- CYPIR herbicidal rating (Cyperus iria; 0.0320 kg/ha, preemergence): 2.0
- CYPIR herbicidal rating (Cyperus iria; 0.0620 kg/ha, preemergence): 5.0
- CYPIR herbicidal rating (Cyperus iria; 0.1250 kg/ha, preemergence): 6.0
- CYPIR herbicidal rating (Cyperus iria; 0.2500 kg/ha, preemergence): 9.0
- CYPSE herbicidal rating ([2]; 0.0320 kg/ha, preemergence): 6.0
- CYPSE herbicidal rating ([2]; 0.0620 kg/ha, preemergence): 7.0
- CYPSE herbicidal rating ([2]; 0.1250 kg/ha, preemergence): 9.0
- CYPSE herbicidal rating ([2]; 0.2500 kg/ha, preemergence): 9.0
- ECHORC herbicidal rating ([3]; 0.0320 kg/ha, preemergence): 6.0
- ECHORC herbicidal rating ([3]; 0.0620 kg/ha, preemergence): 7.0
- ECHORC herbicidal rating ([3]; 0.1250 kg/ha, preemergence): 9.0
- ECHORC herbicidal rating ([3]; 0.2500 kg/ha, preemergence): 9.0
